Test results published in patent publication US20170313828A1, “IN SITU-FORMING OF DENDRIMER HYDROGELS USING MICHAEL-ADDITION REACTION” (Virginia Commonwealth University, priority 2016, published 2017).

Assay: In vitro 5-FU release kinetics
Format: physicochemical
Settings: from hydrogel of 1 wt % PAMAM G5-(NH2)128 and PEG diacrylate575 (FIG. 9)
Protocol: In Vitro Drug Release Kinetics. Drug release was performed on 5-FU loaded into DH-G5-0.5% (5-FU/DH-G5-0.5%). Briefly, Free 5-FU (300 μg) in PBS or DH-G5-0.5% containing 300 μg of 5-FU was transferred to dialysis bags (MWCO=500-1000 Da) and suspended in 30 mL of PBS in 50-mL centrifuge tubes. The tubes were maintained at 37° C. At predetermined time intervals up to 24 h, 1 mL of medium outside the dialysis bag was withdrawn, and the amount of drug released into the medium was analyzed on HPLC against a standard curve of 5-FU. After each sampling, 1 mL of fresh PBS was added to maintain a constant volume and sink condition. All experiments were performed in triplicate.

In the case of O=c1[nH]cc(F)c(=O)[nH]1 [fluorouracil], the “drug released in the first 3 hours” value is reported as “about 70%”.
